Measurements reported in patent publication US11028084B2, “Selective inhibitors of gentotoxic steress-induced IKK/NF-κB pathways” (Max-Delbrück-Centrum für Molekulare Medizin in der …, priority 2016, dated 2021).

What was measured:
p65 S536 phosphorylation = p65 S536 phosphorylation after γ-IR or etoposide, SDS-PAGE/WB, U2OS cells; format: cell-based, human; settings: γ-IR
Protocol: FIG. 3: (A) U2OS cells were pre-treated with increasing concentrations of MW01 in duplicates in a 384 well plate. Then, cells were treated with etoposide, fixed and subjected to IF of p65. Spatial measurement of p65 cytosolic and nuclear localisation was used for calculation of p65 translocation rates. (B) U2OS cells were pre-treated with DMSO, MW01 and irradiated with γ-IR. After 90 min cells were lysed and subjected to SDS-PAGE/WB and EMSA. (C) Cells were pre-treated with different concentrations of MW01 as indicated, treated with γ-IR (C) or etoposide (D) and subjected to WB or EMSA, respectively. LDH in (C) represents the loading control.
FIG. 14: (A) U2OS cells were pre-treated with different concentrations of olaparib prior to co-treatment with etoposide. Whole cell lysis was performed after 90 min and cleared lysates were used for WB with indicated antibodies. (B) U2OS cells were pre-treated with DMSO, olaparib or the ATM inhibitor Ku55933 and co-treated with etoposide. Cells were harvested after 45 min and subjected to SDS-PAGE/WB. Membranes were stained with the indicated antibodies. The experiment of (B) was performed simultaneously to the experiments of (A) and (E) to control functionality of olaparib in inhibiting PAR chain formation. (C) Densitometrical analyses of (A) and two further independent experiments done as shown in (A). (D) U2OS cells were pre-treated with the substances as indicated prior to irradiation. After 90 min mRNA was isolated, transcribed into cDNA and was used for expression analyses of the indicated genes using quantitative real-time PCR (qRT-PCR). (E) HepG2 cells were pre-treated with the PARP inhibitors olaparib, 3-AB and EB-47 prior to γ-irradiation. […]
After transfer of proteins on PVDF membranes unspecific binding of antibodies was blocked by incubation of membranes in 5% skim milk powder in TBST buffer (or 3% BSA in TBST for phosphorylation-specific antibodies) for 1 h at RT. […] After three times of washing with TBST and once with PBS for 5 min, chemiluminescent photon emission was detected using a CCD camera system (Fusion Solo). […]

[1] = tested on: ATM cytoplasmic translocation; experiment: ATM relocalisation upon DNA DSB, immunofluorescence, U2OS cells; format: cell-based, human
Protocol: FIG. 7: Cytoplasmic accumulation of ATM. (A) Fractionation experiment with separated nuclear extracts (NE) and cytoplasmic extracts (CE). PARP1 and LDH staining served as loading and fractionation controls. Cells were pre-treated with DMSO or MW01 (5 μM) prior to irradiation and cell harvesting at indicated times. NE and CE were subjected to SDS-PAGE/WB procedure. (B) U2OS cells were seeded on cover slips 2 days before treatment. The cells were pre-treated with solvent DMSO alone or with MW01 prior to irradiation, cell fixation and subsequent immunofluorescence staining.
For immunofluorescence staining 0.95×10^5 cells were seeded in 6 well plates onto autoclaved cover slips. Cellular confluency dictated to beginning of the experiment (2-3 days from seeding). After conduction of experiments cells were washed with PBS and fixed with 4% PFA/double-distilled H2O (ddH2O) for 10 min at RT. Following two additional washing steps cells were incubated with a solution containing 0.12% glycine/0.2% saponin in PBS for 10 min and then blocked with a solution containing 10% FCS/0.2% saponin in PBS for 1 h. Primary antibody incubation was performed overnight at 4° C. (1:500 diluted in 0.2% saponin in PBS). The next day, cover slips were washed five times with a solution containing 0.2% saponin in PBS. […]

HT1080 cells = experiment: Annexin V staining, flow cytometry, HT1080 cells; format: cell-based; settings: HT1080, 10 Gy
Protocol: FIG. 16: (A) U2OS cells were pre-treated with DMSO or MW01 and irradiated. Cells were lysed 8 h post γ-IR and were used for western blotting and immunochemical staining. (B) HEK293 cells were pre-treated with DMSO or MW01 and irradiated. After 48 h cells were fixed and stained with crystal violet. Dissolved crystal violet was used for absorbance measurement in a visible light spectrophotometer at a wavelength of 595 nm. (C) HEK293 cells were pre-treated with DMSO or MW01 and irradiated. The percentage of viable cells within the population was calculated by exclusion of annexin V and propidium-iodide positive cells measured by flow cytometry. (D) MEF cells were pre-treated with DMSO or MW01 and irradiated. Cells were used for annexin V staining 24 h and 48 after γ-IR. Percentage of annexin V positive cell population was analysed using a flow cytometer. (E) Experiment done as shown in (D) but with HT1080 cells processed 8 h after irradiation. Statistical significance was calculated using students t-test.
Cells were washed with ice-cold PBS and detached from growing dishes using Trypsin/EDTA solution. Detached cells were centrifuged at 300×g for 5 min. […]
In addition, the sensitising effect of NF-κB inhibition was tested in HT1080 cells. After pre-treatment with DMSO or MW01, cells were irradiated with a dose of 10 Gy and analysed by annexin V staining.

## COc1ccc2c(c1OC)c(=O)n1c3ccc(O)cc3c3ccnc2c31 [MW01, 12-hydroxy-6,7-dimethoxy-8H-benzo[c]indolo[3,2,1-ij][1,5]naphthyridin-8-one]
p65 S536 phosphorylation
  p65 S536 phosphorylation following γ-IR: concentration dependent inhibition of p65 S536 phosphorylation
[1]
  ATM localisation after irradiation (IF): predominantly localized within the nucleus
HT1080 cells
  population of early apoptotic cells: roughly doubled
HT1080 cells; 8 h after irradiation
  annexin V staining compared to the irradiated control: significant increase
